# Patent publication EP0180500A1, “Thieno and furo[2,3-c]pyrrole derivatives, process for their preparation and medicaments containing them” (LIPHA, LYONNAISE INDUSTRIELLE PHARMACEUTIQUE, priority 1984, dated 1986)
# How the values were obtained:
# [1] = biological target: récepteurs histaminiques H2 (Cavia porcellus, UniProt P47747); experiment: Isolated guinea-pig atrium (histamine chronotropic effect, H2 blockade)
# Procedure: Oreillette isolée de cobaye : Des cobayes albinos pesant entre 300 et 400 g sont assomés et saignés. Après ouverture du thorax, l'oreillette droite est rapidement dégagée et placée dans une cuve à organe isolé contenant 100 ml de Krebs (composition en g/1 : NaCl 6,9 - KCl 0,35 - CaCl2 0,28 - Mg SO4 0,14 - NaHCO3 2,09 - KH2 P04 0,16, glucose 2) maintenu à 32°C et fortement oxygéné (95 % 02, 5 % CO2).
# L'oreillette est reliée à une jauge de contrainte isométrique, sous une tension de 1 g. Les battements spontanés sont enregistrés sur un enregistreur galvanométrique.
# Après une période de stabilisation de 1 heure, des doses cumulées d'histamine sont ajoutées au milieu de survie, toutes les 5 minutes, ce qui occasionne une accélération des battements par stimulation des récepteurs de l'histamine qui, dans les tissus cardiaques sont de nature H2. L'histamine est ajoutée jusqu'à ce que le rythme de l'oreillette n'augmente plus (effet maximum). On peut alors tracer la courbe représentant la variation du rythme en fonction de la concentration d'histamine dans le bain. Après rinçages et repos de 30 minutes, la même expérimentation est reprise 30 minutes après avoir ajouté un antagoniste H2 dans le bain (composé de l'invention ou produit de référence) .
# Chaque composé est ainsi testé à 3 concentrations géométriquement croissantes qui provoquent, en cas de blocage des récepteurs H2, un déplacement vers la droite des courbes concentration d'histamine/effet chronotrope. Pour chaque composé actif, nous déterminons un pA2, c'est à dire le cologarithme de la concentration du composé de l'essai pour laquelle il faut doubler la concentration d'histamine afin de retrouver un effet chronotrope donné. […] Un minimum de 3 oreillettes est utilisé pour chaque composé essayé.
# Cette préparation permet aussi de se rendre compte de la nature, réversible ou non, de l'inhibition. Dans le premier cas, il sera toujours possible de déplacer l'antagoniste des récepteurs en pratiquant des rinçages répétés ou en utilisant une concentration plus forte d'histamine, ce qui se traduira par des courbes concentration d'histamine/ef- fet chronotrope, parallèles mais supexposables.
# Par contre, dans le deuxième cas (inhibition difficilement réversible), l'antagonisme H2 ne peut être complètement levé, ni par rinçages ni par des concentrations élevées d'histamine, ce qui se traduit par des courbes dose/effet non superposables (l'effet chronotrope maximum est de plus en plus faible quand la concentration de l'antagoniste H2 croit).
# [2] = test system: récepteurs histaminiques H2; experiment: Histamine-induced gastric hyperacidity in the anaesthetised rat;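 as to all read-outs here: Read-out is the continuously recorded acidity of a saline perfusate flowing through the stomach and collected at the pylorus, with at least 3 rats per dose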; conditions: for DE 50 et limites à 95 %: dose reducing histamine-induced hyperacidity by 50 %, histamine infusion 25 µg/kg/minute, single i.v. dose, measured at peak action, 95 % limits in brackets; for Puissance relative Ranitidine = 1: relative potency from DE 50 I.V.
# Procedure: Hyperacidité gastrique à l'histamine chez le rat anesthésié : (Black et Coll., Nature, 1972, 236, 385) : Des rats anesthésiés à l'éthylurétane reçoivent une perfusion continue d'histamine (25 µg/kg/minute)dans une veine jugulaire. L'estomac est continuellement perfusé par du sérum physiologique à 37°C, sous un débit constant de 3 ml/minute.
# Une canule pylorique collecte le perfusat dont l'acidité est mesurée de façon continue. Chaque composé à examiner est administré par la voie intraveineuse (une seule dose par rat).L'inhibition de l'acidité est mesurée au délai correspondant au maximum d'action (délai variable d'un composé à un autre). Un minimum de 3 rats est utilisé pour chaque dose essayée. On détermine, pour chaque composé actif de l'invention, la dose diminuant de 50 % (DE 50), l'hyperacidité induite par l'histamine. On mesure en outre, pour les composés les plus actifs, la durée d'action résultant de l'injection intraveineuse d'une dose unique correspondant à la DE 50 arrondie.
# [3] = test system: acidité gastrique; experiment: Pylorus-ligated rats according to Shay (gastric antisecretory test); conditions: Rattus norvegicus, ip, 4 h, read-out: DE 50 et limites à 95 %
# From the text: Quatre heures plus tard, les animaux sont sacrifiés et le contenu des estomacs prélevé pour mesure de l'acidité. Les composés sont injectés intrapéritonéalement, juste après la ligature du pylore. La dose abaissant l'acidité gastrique de 50 % (DE 50) est calculée pour chaque composé, par rapport à un lot non traité. Chaque composé est testé à 3 doses géamétriquement espacées. Chaque lot comprend 10 rats.
# [4] = test system: rats; conditions: rat, in vivo, iv
# From the text: (§1) Les composés de l'invention sont en général très peu toxiques.
# [5] = test system: souris; conditions: in vivo, iv
# From the text: as §1
# récepteurs histaminiques H2 (Cavia porcellus, UniProt P47747), sequence (P47747 whole entry, the tested form may be a part): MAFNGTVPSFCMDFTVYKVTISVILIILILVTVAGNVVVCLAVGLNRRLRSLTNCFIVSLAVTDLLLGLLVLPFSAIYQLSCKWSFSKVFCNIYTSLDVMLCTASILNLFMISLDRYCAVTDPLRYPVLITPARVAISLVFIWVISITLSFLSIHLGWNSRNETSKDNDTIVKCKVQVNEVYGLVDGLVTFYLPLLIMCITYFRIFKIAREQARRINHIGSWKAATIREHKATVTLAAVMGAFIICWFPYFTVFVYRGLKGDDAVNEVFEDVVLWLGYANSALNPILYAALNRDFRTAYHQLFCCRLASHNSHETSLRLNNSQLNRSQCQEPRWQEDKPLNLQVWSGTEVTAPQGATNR
Compound,Kb [1],DE 50 et limites à 95 % [2],Puissance relative Ranitidine = 1 [2],ED50 [3],effet toxique [4],effet toxique [5]
"COCCN1Cc2cc(CSCCNc3n[s+]([O-])nc3N)sc2C1 (centres unmarked) [Exemple 33, N-[ [ [Dihydro-5,6 (méthoxy-2 éthyl) -5-4H-thiéno [2,3-c]pyrolyl-2]méthylthio]-2 éthyl] oxyde-1 thiadiazole [1,2,5] diamine-3,4]",49 nM,"0,2 (0,08-0,5) mg/kg/I.V.","0,45",0.7 mg/kg,,
"CNC(=NC#N)NCCSCc1[nH]cnc1C [Cimétidine, reference compound]",,"0,4 (0,18-0,9) mg/kg/I.V.",,42 mg/kg,,
"C#CCNc1n[s+]([O-])nc1NCCSCc1cc2c(s1)CN(CC)C2 (centres unmarked) [Exemple 21, N-[ [ (Ethyl-5 dihydro-5,6-4H-thiéno [2,3-c]pyrrolyl-2)méthylthio]-2 éthyl] N'-propargyl oxyde-1 thiadiazole [1,2,5] diamine-3,4]",79.4 nM,"0,6 (0,3 -1,2) mg/kg/I.V.","0,15",32 mg/kg,,
"CCN1Cc2cc(CSCCNc3n[s+]([O-])nc3N)sc2C1 (centres unmarked) [Exemple 13, N-[ [ (Ethyl-5 dihydro-5,6-4H-thiéno [2,3-c]pyrrolyl-2)méthylthio]-2 éthyl] oxyde-1 thiadiazole [1,2,5,] diamine-3,4]",20.9 nM,"0,03 (0,02-0,05) mg/kg/I.V.",3,1.5 mg/kg,,
"CNC(=C[N+](=O)[O-])NCCCOc1cccc2c1CCN(C)C2 [Composé A, N-méthyl N' - [(méthyl-2 tétrahydro-1,2,3,4 isoqwnoléine-5 oxy)-3 propyl] nitro-2 éthène diamine-1,1, reference compound]",1320 nM,> 5 mg/kg/I.V.,,> 50 mg/kg,,
"CCN1Cc2cc(CSCCNc3n[s+]([O-])nc3NC)sc2C1 (centres unmarked) [Exemple 20, N-[ [ (Ethyl-5 dihydro-5,6-4H-thiéno [2,3-c]pyrrolyl-2)méthylthio]-2 éthyl]N'-méthyl oxyde-1 thiadiazole-[1,2,5] diamine-3,4]",42.7 nM,"0,1 (0,03-0,3) mg/kg/I.V.","0,9",20 mg/kg,,
CCN1Cc2cc(CSCCNc3nc(N)nn3C)sc2C1 [Exemple 11],,"0,4 (0,15-1) mg/kg/I.V.","0,22",,,
"CCN1Cc2cc(CSCCC(N)=NS(N)(=O)=O)sc2C1 [Exemple 8, [ (Ethyl-5 dihydro-5,6-4H-thiéno [2,3-c]pyrrolyl-2)méthylthio]-3 N-sulfamoyl propanamidine]",129 nM,"0,5 (0,18-1,4) mg/kg/I.V.","0,18",18 mg/kg,,
"CNC(=C[N+](=O)[O-])NCCSCc1ccc(CN(C)C)o1 [Ranitidine, reference compound]",36.3 nM,"0,09 (0,05-0,17) mg/kg/I.V.",1,14 mg/kg,,
"N-[ [ (Isobutyl-5 dihydro-5,6-4H-thiéno [ 2,3-c ] pyrrolyl-2) méthylthio ]-2 éthyl J oxyde-1 thiadiazole [ 1,2,5 ] diamine-3,4 [Exemple 29]",,"0,1 (0,04-0,25) mg/kg/I.V.","0,9",,,
CCCN1Cc2cc(CSCCNc3n[s+]([O-])nc3N)sc2C1 (centres unmarked) [Exemple 22],17 nM,"0,05 (0,02-0,11) mg/kg/I.V.","1,8",0.5 mg/kg,aucun effet toxique,aucun effet toxique
CCN1Cc2cc(CSCCNC(=NC#N)NC)sc2C1 [Exemple 1],105 nM,"0,6 (0,25-1,5) mg/kg/I.V.","0,15",19 mg/kg,,
"CCN1Cc2cc(CSCCNC(=C[N+](=O)[O-])NC)sc2C1 [Exemple 3, N-[ [ (Ethyl-5 dihydro-5,6-4H-thiéno [2,3-c]pyrrolyl-2)méthylthio]-2 éthyl]N'-méthyl nitro-2 éthènediamine-1,1]",77.6 nM,"0,3 (0,1 -0,9) mg/kg/I.V.","0,3",8 mg/kg,,
"CCCCCN1Cc2cc(CSCCNC(=C[N+](=O)[O-])NC)sc2C1 [Exemple 18, N-[ [ (Dihydro-5,6 n.pentyl-5-4H-thiéno [2,3-c]pyrrolyl-2)méthylthio]-2 éthyl]N'-méthyl nitro-2 éthène diamine-1,1]",89.1 nM,"0,5 (0,17-1,5) mg/kg/I.V.","0,18",15 mg/kg,,
"CCCN1Cc2cc(CSCCNc3c(N)c(=O)c3=O)sc2C1 [Exemple 34, Amino-3 [ [ (dihydro-5,6 n.propyl-5-4H-thiéno [2,3-c]pyrrolyl-2)méthylthio]-2 éthylamino]-4 cyclobutène dione-1,2]",63.1 nM,"0,25 (0,12-0,5) mg/kg/I.V.","0,36",11 mg/kg,,
CCCCN1Cc2cc(CSCCNc3n[s+]([O-])nc3N)sc2C1 (centres unmarked) [Exemple 28],42.7 nM,"0,2 (0,08-0,5) mg/kg/I.V.","0,45",1 mg/kg,,
CCN1Cc2sc(CSCCNC(=C[N+](=O)[O-])NC)c(C)c2C1 [Exemple 19],1260 nM,> 5 mg/kg/I.V.,,> 50 mg/kg,,
CCCCCN1Cc2cc(CSCCNc3n[s+]([O-])nc3N)sc2C1 (centres unmarked) [Exemple 31],30.9 nM,"0,15 (0,07-0,3) mg/kg/I.V.","0,6",3.6 mg/kg,,
"CCCCCCN1Cc2cc(CSCCNc3n[s+]([O-])nc3N)sc2C1 (centres unmarked) [Exemple 30, N-[ [ (n.Hexyl-5 dihydro-5,5-4H-thiéno [2,3-c]pyrrolyl-2)méthylthio]-2 éthyl] oxyde-1 thiadiazole [1,2,5] diamine-3,4]",64.6 nM,"0,2 (0,07-0,6) mg/kg/I.V.","0,45",0.5 mg/kg,,
"N-Cyano N' -[ [ (dihydro-5,6 isopropyl-5-4H-thiéno [2,3-c] pyrrolyl-2) méthylthio]-2 éthyl] N"" méthyl guanidine [Exemple 6]",,> 5 mg/kg/I.V.,,,,
